Laboratory results taken from US20250177448A1, “NEW USE OF PEG-PHOSPHOLIPID MOLECULES” (ICOAT MEDICAL AB, priority 2022, published 2025).
“Also recorded” adds a separate entry of the source.

Tests used:
CD4 = assay: Antibody binding to surface antigen on PEG-phospholipid coated CCRF-CEM, flow cytometry; format: cell-based, human; settings: 2 mg/ml in PBS, 30 minutes room temperature; antigen 15 nm
Procedure: (§1) CCRF-CEM were collected from cell culture medium (1×10^6 cells) and washed with PBS by centrifugation (250×g, 3 min, RT). A cell pellet of CCRF-CEM (1×10^6 cells) was incubated with PEG-phospholipid (50 μl, 2 mg/ml in PBS), 5 kDa unconjugated PEG (50 μl, 2 mg/ml in PBS) or PBS (50 μl, as control) for 30 min at RT with gentle mixing. After washing with PBS by centrifugation (200×g, 4° C., 3 min) twice, FITC-labeled three antibodies, FITC-anti-human CD52 from BioLegend (400 μg/ml, 40 μl), FITC-anti-human CD4 from BioLegend (200 μg/ml, 40 μl), or Alexa488-labelled anti-human CD8 from GeneTex (200 μg/ml, 40 μl, Alexa488 was labelled by the labelling kit) or PBS (40 μl) was mixed with the treated CCRF-CEM for 15 min at RT. As a control, CCRF-CEM was treated with 2 mg/ml PEG (5 kDa, in PBS) solution and additionally incubated with FITC- or Alexa488-labeled antibodies. After washing with PBS by centrifugation (200×g, 4° C., 3 min), CCRF-CEM were re-suspended with PBS (1 ml) for flow cytometry measurements. Samples were analyzed on a flow cytometer (BD LSR II, BD Biosciences). Post analysis processing was carried out in FlowJo (BD).
(§2) CCRF-CEM cells were incubated with PEG-phospholipid (2 mg/ml in PBS), free PEG (5 kDa, equivalent molecular weight used in the synthesis of PEG-phospholipid) or PBS (vehicle control) for 30 minutes at room temperature. After removing excess PEG-phospholipid, FITC-labelled antibodies directed towards surface antigens of different sizes, CD52, CD4, and CD8, were added. Samples were analyzed on a flow cytometer. […] The size of CD8 is estimated to be around 5-10 nm based on the crystal structure of the non-membranous part. Lastly, CD4-antibodies were not blocked by PEG-phospholipid, as expected, given that the size of the antigen (15 nm) is larger than the size of PEG-phospholipid (estimated to be around 6 nm) (FIG. 3A).

CD52 = assay: as above; format: cell-based, human; settings: 2 mg/ml in PBS, 30 minutes room temperature; antigen around 1 nm
Procedure: as §1, §2

CD8 = assay: as above; format: cell-based, human; settings: 2 mg/ml in PBS, 30 minutes room temperature; antigen around 5-10 nm
Procedure: as §1, §2

RBCs = assay: Complement mediated lysis of RBCs coated with PEG-phospholipid; format: cell-based, human; settings: ABO missmatched donors, vs non-treated controls, 37° C. 20 min
Procedure: (§3) In order to investigate if the PEG-phospholipid was able to protect against complement mediated lysis, RBCs were used from 13 different donors who were typed for Rh complex and ABO antigens. RBCs were isolated and preincubated with PEG-phospholipid at varying concentrations, free PEG or PBS as described above. Cells were then washed (and the supernatant stored for analysis) with PBS (800 g×5 min, RT) and incubated with human serum (where the complement system is active) for 20 minutes at 37° C. They were then spun down again (800 g×5 min) and the supernatant was collected for analysis of hemolysis. The RBCs were analyzed for complement fixation (cells were incubated for 10 min with a
(§4) FITC-labelled anti-C3c antibody). RBCs were resuspended with PBS (1 mL) for flow cytometry measurements. […] Post analysis processing was carried out in FlowJo (BD). The supernatant was analyzed on a variable wavelength detection plate reader, Synergy HTX, for the absorbance at 540 nm. RBCs, which were lysed via osmotic stress, were run in parallel as positive controls. The background absorbance at 540 nm from PBS containing no cells was subtracted and the difference in absorbance between cells coated with PEG-phospholipid or PBS was then calculated.

red blood cells = assay: Cell lysis of red blood cells caused by PEG-phospholipid coating; format: cell-based; settings: at the levels able to efficiently mask surface antigens on red blood cells
Procedure: as §3, §4

collectin-11 (CL-11) = assay: Binding of lectin pathway recognition molecule to coated HUVEC after plasma exposure, flow cytometry; format: cell-based; settings: 0.5 mg/ml, after human plasma exposure
Procedure: (§5) Post analysis processing was carried out in FlowJo.

CD31 = assay: Masking of antigens on HUVECs by coating with PEG-phospholipid, flow cytometry; format: cell-based, human; settings: HUVEC, 0.5 mg/ml, 45 mins RT
Procedure: (§6) One hundred μL of HUVEC cell pellet (5×10^4 cells) were incubated in 0.5 mg/ml of PEG-phospholipid solution (final concentration, polyethylene glycol-phospholipid with PEG of 5 kDa (PEG-phospholipid) in PBS, SUNBRIGHT® PP-050CN, N-(methylpolyoxyethylene oxycarbonyl)-1,2-dipalmitoyl-sn-glycero-3-phosphoethanolamine, sodium salt, NOF Corp., Japan) or PBS for 45 mins at RT. Then, the cells were incubated with 5 μg/mL of FITC labelled antibodies for 15 min at RT: CD31 antibody (5 μg/ml) or isotype control Ab-FITC (BD biosciences) or with rabbit anti von Willebrand Factor (vWF) with rabbit IgG as control, both visualized by Alexa 488 goat anti-rabbit antibodies as given in Table 1.
as §5

[1] = tested on: von Willebrand Factor (vWF); assay: as above; format: cell-based, human; settings: HUVEC, 0.5 mg/ml, 45 mins RT
Procedure: as §6, §5

[2] = pig, in vivo
Procedure: Before surgery for both long term survival studies (SM and CLSM), samples were collected in EDTA tubes from both donors and recipients for analyses of total and differential white blood cell counts and hematology (EPK, Hb, EVF, MCV, MCHC, reticulocytes, thrombocytes). Plasma samples were analyzed for aspartate amino transferase (ASAT), alanine aminotransferase (ALAT), γ-glutamyltransferase (GT), glutamate dehydrogenase (GLDH), and creatinine at the Section of Clinical Chemistry, SLU, Uppsala.
Clinical appearance was assessed several times each day after surgery and a thorough clinical examination conducted once daily. The urinary bladders were examined every day at 9 am and […] to determine if the transplanted kidney produced urine. When possible, free-flow urine was collected and evaluated macroscopically, and density, pH, blood and protein were measured.
Each kidney was examined once after transplantation by ultrasound (Logiq e R6, GE Healthcare, Wauwatosa, U.S.A.) using linear (10 MHZ) and curvilinear (4 MHZ) probes. The length and echogenicity of the kidney as well as the corticomedullary definition were estimated. Furthermore, it was assessed whether the renal pelvic region was dilated. The blood flow in the kidney was evaluated using color Doppler. […]

Concanavalin A = settings: HUVEC, 0.5 mg/ml, without plasma exposure
Procedure: HUVEC cells were cultured with endothelial cell culture medium with supplements (Promocell) in cell culture flasks (Thermofisher Scientific) and Petri dishes (NUNC). The cells were detached using trypsin EDTA buffer for flowcytometry analysis (BD accuri C6 Serial no. 5173). The cells were rinsed with PBS (10 mL) by centrifugation (120×g, 4° C., 3 min) once and fresh medium was added to the detached cells.
In addition, HUVEC cells were incubated with PEG-phospholipid (0.5 mg/ml), with 10 mM free PEG (5 kDa), or PBS (control) at RT for 45 min followed by washing with PBS, and incubation in human serum with EDTA-plasma as control, both diluted 1:50 in PBS, for 30 min at 37° C. After washing, lectin pathway recognition molecules collectin-11 (CL-11), and mannan binding lectin (MBL), were detected using the FITC-labelled and isotype control antibodies as given in Table 1. […] In addition, FITC-labelled concavalin A (a lectin of broad specificity) was incubated with coated and native HUVECs (without prior exposure to plasma) at a concentration of 50 g/ml.
After incubation with detecting antibodies, the cells were washed with PBS. All samples were analyzed on an Accuri C6 flow cytometer, unstained cells were used to gate the endothelial cell population. 10,000 events were recorded and additional controls in the form of isotype control and unstained control were ran in parallel. […]

## N-(methylpolyoxyethylene oxycarbonyl)-1,2-dipalmitoyl-sn-glycero-3-phosphoethanolamine [PEG-phospholipid]
CD4
  binding of CD4-antibodies: not blocked; also recorded: no significant masking
CD52
  binding of antibodies directed towards CD52: entirely blocked; also recorded: near complete inhibition; also recorded: effective masking
CD8
  binding capacity of CD8-antibodies: reduced but not entirely blocked; also recorded: partial masking
RBCs
  complement-mediated RBC lysis: reduced complement-mediated RBC lysis in a dose dependent manner
Red blood cells
  cell lysis caused by the PEG-phospholipid molecules: did not cause any cell lysis
collectin-11 (CL-11)
  binding of CL-11: substantially reduced
CD31
  masking of CD31: < 20%
[1]
  detection of vWF: did not decrease
[2]
  toxicity or safety concerns regarding clinical, laboratory, or pathology parameters: No toxicity or safety concerns
Concanavalin A
  binding of Concanavalin A: substantially reduced
